Results: publication PMC11154582, “Modeling the Blood-Brain Barrier Permeability of Potential Heterocyclic Drugs via Biomimetic IAM Chromatography Technique Combined with QSAR Methodology” (Molecules, 2024)
Where two headings read alike, the source gives them in different places.

Key:
bacteria = test system: bacteria; parameters: method as in ref [3] (a number printed in a supplementary file, which may have a reference list of its own: not looked up in the article's list); settings: supplement ref [3], cited from earlier work
[1] = test system: Staphylococcus aureus ATCC 25923; parameters: method as in ref [3] (a number printed in a supplementary file, which may have a reference list of its own: not looked up in the article's list); settings: versus ampicillin; supplement ref [3]; cited from earlier work
[2] = Biomimetic IAM chromatography (log kw, IAM); format: physicochemical; settings: IAM.PC.DD2 column, buffered acetonitrile, pH 7.4, 25 °C, extrapolated to buffer
Description: High performance liquid chromatography (HPLC) measurements were performed on a Shimadzu Vp liquid chromatographic system (Shimadzu, Izabelin, Poland). This instrument was equipped with LC 10AT pump, SPD 10A ultraviolet-visible detector, SCL 10A system controller, CTO-10 AS chromatographic oven, and a Rheodyne injector valve with a 20 μL loop. As the stationary phase Regis IAM.PC.DD2 column, 100 × 4.6 mm i.d., 10 μm (Morton Grove, IL, USA) was applied.
Buffered acetonitrile mixtures were used as effluents. Acetonitrile concentration, expressed as a volume fraction, was varied within a range from 0.2 to 0.5, with a constant step of 0.1. The buffer was prepared from 0.01 mol L^−1 solutions of Na2HPO4 and citric acid, and a pH value of 7.4 was fixed before mixing with an organic modifier. The flow rate was 1.3 mL min^−1. Each compound sample was dissolved in acetonitrile to obtain a concentration of 0.005 mg mL^−1, and each solute peak was detected under ultraviolet light at a wavelength of λmax = 254 nm. Each measurement was performed at a constant temperature (25 °C) at least three times. The dead time values were measured from sodium chloride peaks.
From among 126 heterocyclic compounds evaluated in this work (Table 1), 89 structures have been investigated previously on the IAM column: these are molecules from groups III, IV, V, VI, VII, VIII, IX, XI, XIII, and XV [21, 22, 23]. The remaining ones, i.e., 37 compounds from groups I, II, X, XII and XIV, were tested in this study for the first time using the biomimetic IAM chromatographic technique. To calculate the log kw values (i.e., the logarithms of retention parameter in the buffer as the mobile phase), the retention parameters, logs k (k = (tr − t0)/t0; where tr is the solute retention time, and t0 is a dead time), that were measured for all tested compounds, were used according to Soczewiński-Wachtmeister’s equation (Equation (5)): (5) log k=logtr−t0/t0=log kw−sφ where φ denotes the volume fraction of acetonitrile as organic modifier in the mobile phase, and kw means the retention parameter corresponding to buffer as the mobile phase. The log kw values were evaluated as linear regression coefficients (Table 2).

Pseudomonas aeruginosa = test system: Pseudomonas aeruginosa; parameters: method as in ref [3] (a number printed in a supplementary file, which may have a reference list of its own: not looked up in the article's list); settings: versus chloramphenicol and ampicillin; supplement ref [3]; cited from earlier work
[3] = IAM column, cited from earlier work
[4] = parameters: method as in ref [19] (a number printed in a supplementary file, which may have a reference list of its own: not looked up in the article's list); settings: supplement ref [19]; cited from earlier work
[5] = parameters: method as in ref [21,22] (a number printed in a supplementary file, which may have a reference list of its own: not looked up in the article's list); settings: supplement ref [21,22]; cited from earlier work
[6] = parameters: method as in ref [22] (a number printed in a supplementary file, which may have a reference list of its own: not looked up in the article's list); settings: supplement ref [22]; cited from earlier work
[7] = parameters: method as in ref [8,16] (a number printed in a supplementary file, which may have a reference list of its own: not looked up in the article's list); settings: supplement ref [8,16]; cited from earlier work
[8] = test system: hepatic adenosine A2A receptors; parameters: method as in ref [22] (a number printed in a supplementary file, which may have a reference list of its own: not looked up in the article's list); settings: antagonizes stimulatory effect of a selective A2A receptor agonist; supplement ref [22]; cited from earlier work

Compound: Cc1ccc(N2CCn3c(COc4ccc(Cl)cc4C)nnc32)cc1 [Compound 9]
- antibacterial activity (bacteria): antibacterial
- antibacterial activity against Staphylococcus aureus ATCC 25923 [1]: comparable
- log kw, IAM [2]: 1.95

Compound: Clc1ccc(OCc2nnc3n2CCN3c2ccc(Cl)c(Cl)c2)c(Cl)c1 [Compound 13]
- selectivity of antibacterial activity (bacteria; Gram-negative strains): selective activity on Gram-negative strains of bacteria
- antibacterial activity (bacteria): antibacterial
- antibacterial potency against Pseudomonas aeruginosa ATCC 25923 (Pseudomonas aeruginosa): superior
- log kw, IAM [2]: 2.91

Compound: CCc1nnc2n(c1=O)CCN2c1ccc(Cl)c(Cl)c1 [Compound 28]
- log kw, IAM ([3]; ref [23]): 1.85
- antiviral activity [4]: antiviral

Compound: COc1ccc(N2CCn3c2nnc(C(=O)NN)c3=O)cc1 [Compound 53]
- log kw, IAM ([3]; ref [21]): −0.10
- antiradical activity [5]: antiradical
- scavenging of the superoxide anion radical [6]: able to scavenge
- analgesic activity [7]: analgesic
- action towards hepatic adenosine A2A receptors [8]: antagonistic
